# Reference: US11634443B2, “Treprostinil prodrugs” (United Therapeutics Corporation, priority 2019, dated 2023)
# Assays:
# [1] = Hydrolysis of treprostinil prodrugs to treprostinil at pH 6, 7 and 8 and 40 C; type: physicochemical
# From the text: Tables 26, 27 and 28 present data for hydrolysis of selected treprostinil prodrugs at pH 6, 7 and 8, respectively, and 40 C.
# [2] = Stability and formation of treprostinil in human cryopreserved hepatocytes
# Method: (§1) Mixed-gender human cryopreserved hepatocytes, male Sprague-Dawley rat cryopreserved hepatocytes, and male Beagle dog cryopreserved hepatocytes were purchased from XenoTech. The hepatocytes were thawed and prepared according to the vendor's instructions, pooled into Krebs Henseleit buffer (KHB, pH 7.4), and kept on ice prior to the experiments. […] The final DMSO content in the incubation mixture was ≤0.1%. […] Aliquots of the test article were withdrawn (n=1) at 0, 15, 30, 60, and 120 minutes. […] Aliquots of 7-HC were withdrawn (n=1) at 0 and 15 minutes. The reaction was immediately terminated by adding two volumes of ice-cold acetonitrile (ACN) to the test article samples and three volumes of ACN containing internal standard to the positive control samples.
# [3] = Stability and formation of treprostinil in simulated intestinal fluid; type: in vitro ADME; details: for Formation of Treprostinil, Concentration: SIF, prodrug dosed at 1 μM
# Method: Studies were carried out in simulated intestinal fluid (SIF). SIF was prepared by dissolving 6.8 g of KH2PO4 in 250 mL of water, mixing, and then adding 77 mL of 0.2 N NaOH and 750 mL of water. Pancreatin (10 g) was added, mixed, and the pH was adjusted to pH 6.8 with 10 N NaOH. DMSO stocks were first prepared for the test articles. Aliquots of the DMSO solutions were dosed into 0.4 mL of matrix, which had been pre-warmed to 37° C., at a final test article concentration of 1 μM. The vials were kept in a benchtop Thermomixer® for the duration of the experiment. A separate tube was dosed for each time point in each matrix. At the appropriate times (0, 15, 30, 60, and 120 minutes), 0.8 mL of acetonitrile (ACN) containing 1% formic acid and internal standard was added directly to a single tube. Samples were mixed and then immediately stored at 4° C. until the end of the experiment. After the final time point was sampled, the plate was mixed and then centrifuged at 3000 rpm for 10 minutes. Aliquots of the supernatant were removed, diluted 1:1 into distilled water containing internal standard, and analyzed by LC-MS/MS against calibration standards prepared in a matched matrix. All samples were analyzed for the dosed prodrugs as well as the drug, treprostinil. The test article concentration was compared to the concentration at time 0 to determine the percent of test article remaining at each time point. Half-lives were calculated using GraphPad software, fitting to a single-phase exponential decay equation.
# [4] = molecular target: T1, prostaglandin E2 (PGE2) receptor 2 (EP2) (Homo sapiens, UniProt P43116); assay: EP2 receptor cAMP assay (agonist mode); type: cell-based; details: cAMP, cells overexpressing human EP2
# T1 construct: expressed in transfected cells; host or cells: HEK293T
# [5] = Stability and formation of treprostinil in rat cryopreserved hepatocytes
# Method: as §1
# [6] = Plasma stability and formation of treprostinil, human plasma; type: in vitro ADME; details: 1 μM, 37° C.
# Method: (§2) Studies were carried out in mixed-gender human plasma male Sprague-Dawley rat plasma, and male Beagle dog plasma. All plasma was obtained from Bioreclamation and collected on K2EDTA. Plasma was adjusted to pH 7.4 prior to initiating the experiments. DMSO stocks were first prepared for the test articles. […] The vials were kept in a benchtop Thermomixer® for the duration of the experiment. […] Samples were stored at 4° C. until the end of the experiment. After the final time point was sampled, the plate was mixed and then centrifuged at 3000 rpm for 10 minutes.
# [7] = molecular target: T2, prostaglandin I2 (PGI2) receptor (IP) (Homo sapiens, UniProt P43119); assay: IP receptor cAMP assay (agonist mode); type: cell-based; details: cAMP, cells overexpressing human IP
# T2 construct: expressed in transfected cells; host or cells: CHO-K1
# Method: Assay Buffer: • EP1 Calcium and DP1 cAMP Assays: HBSS plus 20 mM HEPES • EP2 and IP1 cAMP Assays: 1 mM IBMX in HBSS plus 20 mM HEPES
# Cells were thawed from frozen cells and resuspended in assay buffer at desired concentrations. cAMP or Calcium assays were performed according to the manufacturer's protocol using Multiscreen™ TR-FRET cAMP 1.0 No Wash Assay Kit or Multiscreen™ Calcium 1.0 No Wash Kit.
# Gas Cyclic AMP (cAMP) Assay: In agonist mode testing, cells were seeded in a 384-well plate at an appropriate density and then were treated with compounds and incubated at 37° C. for 20 minutes. The reaction was terminated by sequentially adding sequentially adding trFluor™ Eu-labeled cAMP and trFluor™ 650-labeled anti-cAMP antibody in lysis buffer. […] All testing wells contained 0.1% DMSO in the final concentrations.
# Data in graphs are represented in Mean±SD. Dose-dependent responses were fitted with sigmoidal dose-response curves allowing variable slopes using GraphPad Prism version 6 (Graphpad Prism).
# These studies used cell lines overexpressing either human IP, EP2 or DP1, or EP1 receptors, and following incubation with varying concentrations of compounds, cAMP levels were measured using Fluorescence Resonance Energy Transfer (FRET).
# [8] = Plasma stability and formation of treprostinil, rat plasma; type: in vitro ADME; details: 1 μM, 37° C.
# Method: as §2
# [9] = Plasma stability and formation of treprostinil, dog plasma; type: in vitro ADME; details: 1 μM, 37° C.
# Method: as §2
# [10] = Stability and formation of treprostinil in dog cryopreserved hepatocytes
# Method: as §1
# T1 sequence (P43116 whole entry): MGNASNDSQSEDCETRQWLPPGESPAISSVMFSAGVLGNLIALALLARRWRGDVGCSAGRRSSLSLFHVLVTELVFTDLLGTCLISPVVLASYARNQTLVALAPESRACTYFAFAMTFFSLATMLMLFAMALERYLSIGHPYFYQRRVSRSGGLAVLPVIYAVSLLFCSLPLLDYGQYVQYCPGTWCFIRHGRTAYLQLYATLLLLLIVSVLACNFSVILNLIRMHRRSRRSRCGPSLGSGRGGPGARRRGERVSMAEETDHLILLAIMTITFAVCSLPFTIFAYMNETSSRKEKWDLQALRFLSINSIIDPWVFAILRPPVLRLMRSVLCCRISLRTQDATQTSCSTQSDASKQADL
# T2 sequence (P43119 whole entry): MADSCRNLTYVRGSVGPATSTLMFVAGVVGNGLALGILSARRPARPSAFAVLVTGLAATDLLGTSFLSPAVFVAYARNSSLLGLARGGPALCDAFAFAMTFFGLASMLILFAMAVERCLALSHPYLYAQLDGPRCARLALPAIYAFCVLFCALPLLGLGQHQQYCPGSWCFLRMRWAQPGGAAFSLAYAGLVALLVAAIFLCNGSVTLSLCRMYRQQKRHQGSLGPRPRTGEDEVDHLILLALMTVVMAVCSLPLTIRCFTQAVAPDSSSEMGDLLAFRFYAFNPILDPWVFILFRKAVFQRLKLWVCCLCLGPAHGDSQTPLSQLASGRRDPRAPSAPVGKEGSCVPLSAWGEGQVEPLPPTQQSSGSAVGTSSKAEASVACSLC
substance,measurement,setting,value
treprostinil dicarbonate [Prodrug LXXI],"Hydrolysis of prodrug to treprostinil, % Area, t = 1 week","[1]; pH 6, 40 C",0.00 % Area
same,"Hydrolysis of prodrug to treprostinil, % Area, t = 2 weeks","[1]; pH 6, 40 C",0.00 % Area
same,"Hydrolysis of prodrug to treprostinil, % Area, t = 3 weeks","[1]; pH 6, 40 C",0.00 % Area
same,"Hydrolysis of prodrug to treprostinil, % Area, t = 1 week","[1]; pH 7, 40 C",0.00 % Area
same,"Hydrolysis of prodrug to treprostinil, % Area, t = 2 weeks","[1]; pH 7, 40 C",0.00 % Area
same,"Hydrolysis of prodrug to treprostinil, % Area, t = 3 weeks","[1]; pH 7, 40 C",0.00 % Area
same,"Hydrolysis of prodrug to treprostinil, % Area, t = 1 week","[1]; pH 8, 40 C",0.00 % Area
same,"Hydrolysis of prodrug to treprostinil, % Area, t = 2 weeks","[1]; pH 8, 40 C",0.00 % Area
same,"Hydrolysis of prodrug to treprostinil, % Area, t = 3 weeks","[1]; pH 8, 40 C",0.38 % Area
same,"Treprostinil Concentration, 0 min",[2],0 µM
same,"Treprostinil Concentration, 15 min",[2],0.118 µM
same,"Treprostinil Concentration, 30 min",[2],0.211 µM
same,"Treprostinil Concentration, 60 min",[2],0.273 µM
same,"Treprostinil Concentration, 120 min",[2],0.259 µM
same,Half-Life,"[3]; SIF pH 6.8, 1 μM, 37° C.",>2 h
same,"Formation of Treprostinil, Concentration",[3]; 0 min,0 µM
same,"Formation of Treprostinil, Concentration",[3]; 15 min,0 µM
same,"Formation of Treprostinil, Concentration",[3]; 30 min,0 µM
same,"Formation of Treprostinil, Concentration",[3]; 60 min,0 µM
same,"Formation of Treprostinil, Concentration",[3]; 120 min,0.0121 µM
same,Activity at the EP2 receptor compared to treprostinil,[4],inactive
same,"Treprostinil Concentration, 0 min",[5],0 µM
same,"Treprostinil Concentration, 15 min",[5],0.422 µM
same,"Treprostinil Concentration, 30 min",[5],0.403 µM
same,"Treprostinil Concentration, 60 min",[5],0.347 µM
same,"Treprostinil Concentration, 120 min",[5],0.292 µM
same,Half-Life,[6],>2 h
same,Activity at the IP receptor compared to treprostinil,[7],inactive
same,Half-Life,[8],<0.25 h
same,Half-Life,[9],>2 h
same,"Treprostinil Concentration, 0 min",[10],0.00293 µM
same,"Treprostinil Concentration, 15 min",[10],0.501 µM
same,"Treprostinil Concentration, 30 min",[10],0.408 µM
same,"Treprostinil Concentration, 60 min",[10],0.348 µM
same,"Treprostinil Concentration, 120 min",[10],0.303 µM
